Data published in patent US5358947A, “Angiotensin II receptor blocking 2,3-substituted pyrazolo[1,5-a]-1,3,5-triazin-4(3H)-ones” (American Cyanamid Company, priority 1993, dated 1994).
Where “and” joins values, the source holds several entries; their conditions need not be identical. Equal values may be shown once.

Test system: ANGIOTENSIN II (AII) VASOPRESSOR RESPONSE
Assay: AII Challenge: angiotensin II (AII) vasopressor response in conscious rats
Assay type: in vivo
Set-up: Response After AII / Change / Average Change: unit not given here
Conditions: for Control Before AII / Change / Response After AII: individual rat; for Control Before AII: in mmHg (unit assumed); for % Inhibition / Average Change: n = 2
Excerpt: By administering a compound of this invention to a rat, and then challenging with angiotensin II, a blockage of the vasopressor response is realized.
Conscious Male Okamoto-Aoki SHR, 16-20 weeks old, weighing approximately 330 g are purchased from Charles River Labs (Wilmington, Mass.). Conscious rats are restrained in a supine position with elastic tape. The area at the base of the tail is locally anesthetized by subcutaneous infiltration with 2% procaine. The ventral caudal artery and vein are isolated, and a cannula made of polyethylene (PE) 10-20 tubing (fused together by heat) is passed into the lower abdominal aorta and vena cava, respectively. The cannula is secured, heparinized (1,000 I.U./ml), sealed and the wound is closed. The animals are placed in plastic restraining cages in an upright position. The cannula is attached to s Statham P23Db pressure transducer, and pulsatile blood pressure is recorded to 10-15 minutes with a Gould Brush recorder. (Chan et al., (Drug Development Res., 18:75-94, 1989).
Angiotensin II (human sequence, Sigma Chem. Co., St. Louis, Mo.) of 0.05 and 0.1 ug/kg i.v. is injected into all rats (predosing response.). Then a test compound, vehicle or a known angiotensin II antagonist is administered i.v., i.p. or orally to each set of rats. The two doses of angiotensin II are given to each rat again at 30, 60, 90, 120, 180, 240 and 300 minutes post dosing the compound or vehicle. The vasopressor response of angiotensin II by a compound is calculated using the vasopressor response (increase in systolic blood pressure) of angiotensin II of each rat predosing the compound as 100%. A compound is considered active if at 30 mg/kg i.v. it antagonized at least 50% of the response.

[1] = 3 mg/kg i.v., AII 0.05 mcg/kg, 30 min post dose
[2] = 3 mg/kg i.v., AII 0.05 mcg/kg, 30 min post dose, listed as Ex. 17
[3] = 3 mg/kg i.v., AII 0.1 mcg/kg, 30 min post dose
[4] = 3 mg/kg i.v., AII 0.1 mcg/kg, 30 min post dose, listed as Ex. 17
[5] = 10 mg/kg i.v., AII 0.05 mcg/kg, 60 min post dose, listed as Ex. 17
[6] = 10 mg/kg i.v., AII 0.05 mcg/kg, 90 min post dose, listed as Ex. 17
[7] = 10 mg/kg i.v., AII 0.05 mcg/kg, 120 min post dose, listed as Ex. 17
[8] = 10 mg/kg i.v., AII 0.05 mcg/kg, 180 min post dose, listed as Ex. 17
[9] = 10 mg/kg i.v., AII 0.05 mcg/kg, 240 min post dose, listed as Ex. 17
[10] = 10 mg/kg i.v., AII 0.05 mcg/kg, 300 min post dose, listed as Ex. 17
[11] = 10 mg/kg i.v., AII 0.1 mcg/kg, 60 min post dose, listed as Ex. 17
[12] = 10 mg/kg i.v., AII 0.1 mcg/kg, 90 min post dose, listed as Ex. 17
[13] = 10 mg/kg i.v., AII 0.1 mcg/kg, 120 min post dose, listed as Ex. 17
[14] = 10 mg/kg i.v., AII 0.1 mcg/kg, 180 min post dose, listed as Ex. 17
[15] = 10 mg/kg i.v., AII 0.1 mcg/kg, 240 min post dose, listed as Ex. 17
[16] = 10 mg/kg i.v., AII 0.1 mcg/kg, 300 min post dose, listed as Ex. 17

CCCCc1nc2ccnn2c(=O)n1Cc1ccc(-c2ccccc2-c2nn[nH]n2)cc1 [Example 17, 2-Butyl-3-[[2'-(1H-tetrazol-5-yl)[1,1'-biphenyl]-4-yl]methyl]pyrazolo[1,5-a]-1,3,5-triazin-4(3H) -one]
Control Before AII [1]: 252
Change [2]: 33 and 30
Response After AII [2]: 285 and 265
Control Before AII [2]: 235
% Inhibition [1]: 34%
Average Change [1]: 31.5
Control Before AII [3]: 255
Change [4]: 25 and 35
Response After AII [4]: 280 and 260
Control Before AII [4]: 225
% Inhibition [3]: 37%
Average Change [3]: 30
Change [5]: 5 and 10
Response After AII [5]: 255 and 245
Control Before AII [5]: 250 and 235
% Inhibition [5]: 84%
Average Change [5]: 7.5
Change [6]: 25
Response After AII [6]: 275 and 255
Control Before AII [6]: 250 and 230
% Inhibition [6]: 47%
Average Change [6]: 25
Change [7]: 25 and 30
Response After AII [7]: 270 and 255
Control Before AII [7]: 245 and 225
% Inhibition [7]: 42%
Average Change [7]: 27.5
Change [8]: 20 and 30
Response After AII [8]: 260 and 240
Control Before AII [8]: 240 and 210
% Inhibition [8]: 47%
Average Change [8]: 25
Change [9]: 25 and 15
Response After AII [9]: 270 and 250
Control Before AII [9]: 245 and 235
% Inhibition [9]: 58%
Average Change [9]: 20
Change [10]: 40 and 30
Response After AII [10]: 290 and 245
Control Before AII [10]: 250 and 215
% Inhibition [10]: 26%
Average Change [10]: 35
Control Before AII (10 mg/kg i.v., AII 0.1 mcg/kg, 60 min post dose): 255
Change [11]: 5 and 10
Response After AII [11]: 260 and 235
Control Before AII [11]: 225
% Inhibition [11]: 84%
Average Change [11]: 7.5
Change [12]: 15 and 35
Response After AII [12]: 265 and 260
Control Before AII [12]: 250 and 225
% Inhibition [12]: 47%
Average Change [12]: 25
Change [13]: 25 and 30
Response After AII [13]: 275 and 260
Control Before AII [13]: 250 and 230
% Inhibition [13]: 42%
Average Change [13]: 27.5
Control Before AII (10 mg/kg i.v., AII 0.1 mcg/kg, 180 min post dose): 240
Change [14]: 30 and 40
Response After AII [14]: 270 and 265
Control Before AII [14]: 225
% Inhibition [14]: 26%
Average Change [14]: 35
Change [15]: 35 and 30
Response After AII [15]: 290 and 270
Control Before AII [15]: 255 and 240
% Inhibition [15]: 32%
Average Change [15]: 32.5
Change [16]: 35 and 25
Response After AII [16]: 285 and 260
Control Before AII [16]: 250 and 235
% Inhibition [16]: 37%
Average Change [16]: 30
